Data set [1] can be described thus: Lipophilicity, log P of the compound. The format is physicochemical. The conditions noted are these: octanol/water.
Data set [2] has as its target T1, Aldehyde dehydrogenase, dimeric NADP-preferring (Homo sapiens) (UniProt P30838).
T1 sequence (whole entry): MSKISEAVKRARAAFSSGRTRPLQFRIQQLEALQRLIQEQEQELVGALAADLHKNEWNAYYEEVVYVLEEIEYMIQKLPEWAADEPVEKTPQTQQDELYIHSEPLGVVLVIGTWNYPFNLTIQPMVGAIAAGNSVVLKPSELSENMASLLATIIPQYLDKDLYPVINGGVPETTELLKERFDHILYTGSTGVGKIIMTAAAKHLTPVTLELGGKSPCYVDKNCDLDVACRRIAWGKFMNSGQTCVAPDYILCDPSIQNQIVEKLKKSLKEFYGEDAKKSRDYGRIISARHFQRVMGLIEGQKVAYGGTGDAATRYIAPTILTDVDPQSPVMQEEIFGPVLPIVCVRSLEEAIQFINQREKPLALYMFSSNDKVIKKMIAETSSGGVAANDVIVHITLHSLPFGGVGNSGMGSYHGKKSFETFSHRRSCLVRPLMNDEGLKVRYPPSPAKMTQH
The data set is described as follows: Inhibition of full length recombinant human ALDH3A1 expressed in Escherichia coli BL21(DE3) assessed as remaining dehydrogenase activity by measuring NAD(P)H level at 10 uM preincubated for 2 mins followed by addition of propionaldehyde as substrate in presence of NAD+ by spectrophotometric method.

Data set [3] concerns the target T2, Aldehyde dehydrogenase, mitochondrial (Homo sapiens) (UniProt P05091).
T2 sequence (whole entry): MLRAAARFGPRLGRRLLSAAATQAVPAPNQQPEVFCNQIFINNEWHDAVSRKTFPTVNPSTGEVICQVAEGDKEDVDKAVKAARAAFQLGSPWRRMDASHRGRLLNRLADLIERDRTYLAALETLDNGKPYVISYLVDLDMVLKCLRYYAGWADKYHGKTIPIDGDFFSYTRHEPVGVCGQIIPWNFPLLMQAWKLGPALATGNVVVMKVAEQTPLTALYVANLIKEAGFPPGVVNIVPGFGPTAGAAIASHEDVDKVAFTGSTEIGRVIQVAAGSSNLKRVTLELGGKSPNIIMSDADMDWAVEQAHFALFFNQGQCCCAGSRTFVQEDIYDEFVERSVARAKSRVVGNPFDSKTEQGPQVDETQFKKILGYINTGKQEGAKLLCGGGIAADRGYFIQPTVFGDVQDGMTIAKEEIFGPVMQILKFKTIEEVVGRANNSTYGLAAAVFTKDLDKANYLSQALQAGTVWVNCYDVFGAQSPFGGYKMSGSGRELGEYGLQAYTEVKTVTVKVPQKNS
The data set is described as follows: Inhibition of full length recombinant human ALDH2 expressed in Escherichia coli assessed as remaining dehydrogenase activity by measuring NAD(P)H level at 10 uM preincubated for 2 mins followed by addition of propionaldehyde as substrate in presence of NAD+ by spectrophotometric method.

Data set [4] has as its target T3, Aldehyde dehydrogenase 1A1 (Homo sapiens) (UniProt P00352).
T3 sequence (whole entry): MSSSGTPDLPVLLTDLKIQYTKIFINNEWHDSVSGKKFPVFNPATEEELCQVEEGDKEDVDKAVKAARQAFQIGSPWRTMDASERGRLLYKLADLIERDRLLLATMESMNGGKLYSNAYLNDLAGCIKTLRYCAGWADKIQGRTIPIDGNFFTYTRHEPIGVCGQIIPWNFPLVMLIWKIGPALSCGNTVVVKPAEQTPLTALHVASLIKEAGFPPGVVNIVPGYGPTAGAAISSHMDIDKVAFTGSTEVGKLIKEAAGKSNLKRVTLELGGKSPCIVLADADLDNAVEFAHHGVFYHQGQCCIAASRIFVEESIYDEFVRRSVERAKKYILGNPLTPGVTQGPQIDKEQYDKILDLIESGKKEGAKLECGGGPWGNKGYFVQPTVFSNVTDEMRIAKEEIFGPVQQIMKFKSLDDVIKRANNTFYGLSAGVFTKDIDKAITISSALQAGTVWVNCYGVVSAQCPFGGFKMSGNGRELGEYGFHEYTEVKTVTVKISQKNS
The data set can be described thus: Inhibition of full length recombinant human ALDH1A1 expressed in Escherichia coli BL21(DE3) assessed as remaining dehydrogenase activity by measuring NAD(P)H level at 10 uM preincubated for 2 mins followed by addition of propionaldehyde as substrate in presence of NAD+ by spectrophotometric method.

Data set [5] has as its target T4, Aldehyde dehydrogenase, dimeric NADP-preferring (Homo sapiens, UniProt P30838).
T4 sequence (P30838 whole entry): T1 sequence (whole entry)
The data set can be described thus: Inhibition of full length recombinant human ALDH3A1 expressed in Escherichia coli BL21(DE3) assessed as reduction in dehydrogenase activity by measuring NAD(P)H level preincubated for 2 mins followed by addition of benzaldehyde as substrate in presence of NADP+ by spectrophotometric method.

The target in data set [6] is T5, Aldehyde dehydrogenase, mitochondrial (Homo sapiens, UniProt P05091).
T5 sequence (P05091 whole entry): T2 sequence (whole entry)
Description: Inhibition of full length recombinant human ALDH2 expressed in Escherichia coli assessed as reduction in dehydrogenase activity by measuring NAD(P)H level preincubated for 2 mins followed by addition of propionaldehyde as substrate in presence of NAD+ by spectrophotometric method

The target of data set [7] is T6, Aldehyde dehydrogenase 1A1 (Homo sapiens, UniProt P00352).
T6 sequence (P00352 whole entry): T3 sequence (whole entry)
Description: Inhibition of full length recombinant human ALDH1A1 expressed in Escherichia coli BL21(DE3) assessed as reduction in dehydrogenase activity by measuring NAD(P)H level preincubated for 2 mins followed by addition of propionaldehyde as substrate in presence of NAD+ by spectrophotometric method

logP, Activity and IC50 data for 23 compounds are collected here from ChEMBL document CHEMBL4007427, “Inhibition of the Aldehyde Dehydrogenase 1/2 Family by Psoralen and Coumarin Derivatives” (J Med Chem, 2017).

In general, logP refers to the decadic logarithm of the partition coefficient of the neutral form, usually between octanol and water. Lower therefore signals a more hydrophilic compound. The term IC50 denotes the concentration that gives 50% inhibition.

In data set [1], `Cc1c(C)c2cc3c(-c4ccccc4)coc3cc2oc1=O` had a logP of 4.8. For the same compound, the Activity in data set [2] is 88.9%; in data set [3], 92.8%; in data set [4], 87.4%.

The compound `CC(=O)C(C)Oc1ccc2c(C)cc(=O)oc2c1` (stereo not drawn) came in with a logP in data set [1] of 1.72. Moreover, the Activity turned out to be 101% in data set [2], 94.4% in data set [3] and 68.7% in data set [4].

Compound `Cc1cc(=O)oc2cc(OC(C)C(=O)O)ccc12` (stereo not drawn) showed a logP in data set [1] of 1.63. Also, the Activity in data set [2] stood at 93.9%; in data set [3], 99.3%; in data set [4], 97.5%.

The compound `CC(=O)C(C)Oc1ccc2ccc(=O)oc2c1` (stereo not drawn) displayed a logP in data set [1] of 1.4. The figures for the Activity in data set [2], in data set [3] and in data set [4] were 106%, 93.3% and 91.4%, respectively.

In turn, `Cc1oc2c(C)c3oc(=O)c(C)c(C)c3cc2c1C` showed a logP in data set [1] of 4.36. The figures for the Activity in data set [2], in data set [3] and in data set [4] were 102%, 87.2% and 78.4%, respectively.

In data set [1], `Cc1c(C)c2c(cc(C)c3c(C)coc32)oc1=O` yielded a logP of 3.92. Also, the Activity in data set [2] was 98.1%; in data set [3], 46.4%; in data set [4], 71.5%. For the same compound, the results for the IC50 result in data set [5], in data set [6] and in data set [7] were “Not Active”, 150 nM and “Not Active”, respectively.

In data set [1], `COc1ccc2c(C)cc(=O)oc2c1` [HYMECROMONE METHYL ETHER] had a logP of 2.46. Also, the Activity in data set [2] is 36.4%; in data set [3], 94.8%; in data set [4], 80.2%.

As to `Cc1cc(=O)oc2cc(OCC(=O)Nc3ccccc3)ccc12`, in data set [1], the logP is 2.85. Further, the Activity in data set [2] was found to be 95.5%; in data set [3] it was 95%; in data set [4], 49.6%.

`CC(C)=CCOc1ccc2c(C)cc(=O)oc2c1` yielded a log partition coefficient (logP) in data set [1] of 3.94. The values for the Activity in data set [2], in data set [3] and in data set [4] were 23.7%, 93.3% and 37.3%, respectively.

`Cc1cc(=O)oc2cc(OCC(=O)c3ccccc3)ccc12` registered a logP in data set [1] of 3.19. For the same compound, the Activity in data set [2] was 67.1%; in data set [3] it was 97.8%; in data set [4], 29%.

Regarding `CC(=O)C(C)Oc1ccc2c(c1)oc(=O)c1ccccc12` (stereo not drawn), in data set [1], the logP amounted to 2.64. Besides, the Activity in data set [2] came to 103%; in data set [3], 64.4%; in data set [4], 58.7%.

For `Cc1cc2oc(=O)cc(C)c2cc1NC(=O)C(C)C`, the logP in data set [1] was 2.05. Further, the Activity was 105% in data set [2], 96.3% in data set [3] and 59.8% in data set [4].

`CC(=O)COc1ccc2c(C)cc(=O)oc2c1` had a logP in data set [1] of 1.37. Besides, the figures for the Activity in data set [2], in data set [3] and in data set [4] were 64.1%, 99.1% and 52.2%, respectively.

For `Cc1c(C)c2cc3c(C(C)(C)C)coc3cc2oc1=O`, in data set [1], the logP amounted to 3.94. The values for the Activity in data set [2], in data set [3] and in data set [4] were 87%, 69.7% and 94.5%, respectively.

In data set [1], `Cc1oc2cc3oc(=O)c(CCC(=O)NCc4ccccc4)c(C)c3cc2c1C` had a logP of 4.52. In addition, the Activity in data set [2] amounted to 68.3%; in data set [3], 69.8%; in data set [4], 93.6%.

With `Cc1oc2cc3oc(=O)cc(Cc4ccccc4)c3cc2c1C`, the logP in data set [1] is 4.8. Moreover, the results for the Activity in data set [2], in data set [3] and in data set [4] were 81.6%, 73.7% and 57%, respectively.

As for `Cc1cc(=O)oc2cc(OCC(N)=O)ccc12`, the logP in data set [1] was 1.71. The Activity in data set [2] was 67.1%; in data set [3] it was 89.5%; in data set [4] it was 28.5%.

For `Cc1c(C)c2cc3c4c(oc3cc2oc1=O)CCCC4`, the lipophilicity (logP) in data set [1] came out at 4.48. In addition, the Activity is 96.1% in data set [2], 61.3% in data set [3] and 64.3% in data set [4].

With `Cc1oc2cc3oc(=O)c4ccccc4c3cc2c1C`, the logP in data set [1] amounted to 3.89. In addition, the Activity in data set [2] is 93.4%; in data set [3], 42.2%; in data set [4], 82.4%. The IC50 entry in data set [5] is “Not Active”; in data set [6] it was 150 nM; in data set [7], “Not Active”.

As for `Cc1coc2cc3oc(=O)c(Cc4ccccc4)c(C)c3cc12`, the logP in data set [1] was 4.98. Further, the Activity in data set [2] was 90.3%; in data set [3], 83.6%; in data set [4], 58.5%.

Consider `Cc1c(C)c2cc3c(=O)ccoc3c(C)c2oc1=O`, for which the logP in data set [1] came out at 2.1. Also, the Activity was 79.2% in data set [2], 80.2% in data set [3] and 67.4% in data set [4].

As to `C=CCOc1ccc2c(C)cc(=O)oc2c1`, the logP in data set [1] amounted to 3.01. The Activity in data set [2] amounted to 9.46%; in data set [3], 94.6%; in data set [4], 35.5%.

As to `Cc1c(CCC(=O)O)c(=O)oc2cc(O)ccc12`, the logP in data set [1] was 1.82. Also, the figures for the Activity in data set [2], in data set [3] and in data set [4] were 105%, 101% and 96.6%, respectively.
